PubChem BioAssay (NCI)
Values joined by “and” are separate entries in the source; they are usually repeats but may differ in a detail not shown here. Identical values can stand only once.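 Five concentrations, 48 hours, 96-well plates. GI50: concentration for 50% inhibition of growth. TGI: concentration producing complete growth inhibition.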

How the values were obtained:
Test in all cases: NCI anticancer screen, dose series, 48 h
NCI/ADR-RES ovarian = test system: NCI/ADR-RES ovarian
MALME-3M melanoma = test system: MALME-3M melanoma
NCI-H226 lung = test system: NCI-H226 lung
HS 578T breast = test system: HS 578T breast
IGROV1 ovarian = test system: IGROV1 ovarian
MDA-MB-231 breast = test system: MDA-MB-231 breast
LOX IMVI melanoma = test system: LOX IMVI melanoma
UACC-257 melanoma = test system: UACC-257 melanoma
SF-295 CNS = test system: SF-295 CNS
SR leukemia = test system: SR leukemia
UO-31 renal = test system: UO-31 renal
RXF 393 renal = test system: RXF 393 renal
MDA-N = test system: MDA-N
CAKI-1 renal = test system: CAKI-1 renal
CCRF-CEM leukemia = test system: CCRF-CEM leukemia

SMILES	TGI (NCI/ADR-RES ovarian)	TGI (MALME-3M melanoma)	TGI (NCI-H226 lung)	TGI (HS 578T breast)	TGI (IGROV1 ovarian)	TGI (MDA-MB-231 breast)	TGI (LOX IMVI melanoma)	TGI (UACC-257 melanoma)	TGI (SF-295 CNS)	TGI (SR leukemia)	TGI (UO-31 renal)	TGI (RXF 393 renal)	TGI (MDA-N)	TGI (CAKI-1 renal)	GI50 (UACC-257 melanoma)	GI50 (UO-31 renal)	GI50 (MDA-N)	TGI (CCRF-CEM leukemia)
CC(C)(C)OC(=O)NC1CC2(C=C(Br)C(=O)C(Br)=C2)OC1=O (centres undefined)	34.8 µM	18.9 µM	40.6 µM	51.3 µM	31.2 µM	32.6 µM	33.4 µM	13 µM	38.9 µM	4.18 µM	13.8 µM	11.8 µM	15.3 µM	11.6 µM				
Cc1cnc2sn(-c3ccc([N+](=O)[O-])cc3)c(=O)c2c1	> 100 µM	> 100 µM	> 100 µM	> 100 µM	> 100 µM	> 100 µM	> 100 µM		> 100 µM	> 100 µM	> 100 µM		> 100 µM					
CN(Cc1cnc2nc(N)nc(N)c2n1)c1ccc(C(=O)N[C@@H](CCC(=O)O)C(=O)O)cc1	> 250 µM	> 250 µM	242 µM and > 250 µM	> 250 µM	212 µM and > 250 µM	> 250 µM	> 250 µM	> 237 µM	231 µM and > 250 µM	194 µM	148 µM	215 µM and > 250 µM	> 250 µM	200 µM and > 250 µM	1890 nM	45.4 nM	28.9 nM and 12.2 nM	
O=C1C(Br)=C(c2ccccc2)O/C1=C/C(=O)c1ccc(Br)cc1		> 100 µM	> 100 µM	> 100 µM	> 100 µM	> 100 µM				> 100 µM	> 100 µM	46.9 µM	> 100 µM	35 µM				> 100 µM
OC1(c2ccc(-c3ccccc3)cc2)c2ccccc2C2=NCCN21 (centres undefined)	> 100 µM		62 µM	75.4 µM		> 100 µM	> 100 µM	> 100 µM	> 100 µM	> 100 µM	> 100 µM		> 100 µM	> 100 µM				> 100 µM
COC(CN(C(C)=O)C1CCC2(SCCS2)c2[nH]c3ccccc3c21)OC (centres undefined)	> 100 µM	> 100 µM	> 100 µM	> 100 µM	> 100 µM	> 100 µM	1.71 µM	3.36 µM		> 100 µM	> 100 µM	> 100 µM	> 100 µM	> 100 µM				> 100 µM
Cc1nc(C)c(N2CCN(S(=O)(=O)N(Cc3ccccc3)Cc3ccccc3)CC2)c(=O)[nH]1	> 100 µM	> 100 µM		38.8 µM	> 100 µM	> 64.5 µM	> 100 µM	> 100 µM	> 83.6 µM	> 100 µM	> 100 µM	38 µM	> 100 µM	> 47.9 µM				> 100 µM
CO/N=C(/C)c1cccc(Nc2nc3ccccc3c3[nH]c4ccccc4c23)c1	25.1 µM		33.2 µM	35.8 µM	30.6 µM	25.5 µM	25 µM	26.5 µM	14.6 µM	> 100 µM	22.1 µM		20.4 µM	24.2 µM				
CCN1CCC(O)(c2ccc(Oc3ccc(F)cc3)cc2)C(C(=O)c2ccc(Oc3ccc(F)cc3)cc2)C1 (centres undefined)	30.1 µM	31 µM	29.5 µM	38.4 µM	24.1 µM	26.6 µM	25.9 µM	29.8 µM	29.3 µM	6.5 µM		25.8 µM	30.6 µM	25.7 µM				28.1 µM
O=C(NCCN1CCOCC1)c1cn2c(ccc3sc4ccccc4c(=O)c32)n1	> 100 µM	> 100 µM	> 100 µM	47.3 µM	> 100 µM	> 100 µM	47.4 µM	> 100 µM	44.9 µM	> 100 µM	> 100 µM	> 100 µM	> 100 µM	> 100 µM				
CC(NC(=O)NC(C)(C)C)NC(=O)C(N)CC(=O)O (centres undefined)	> 100 µM	> 100 µM	> 100 µM	> 100 µM	> 100 µM	> 100 µM	> 100 µM	> 100 µM	> 100 µM		> 100 µM	> 100 µM	> 100 µM	> 100 µM				> 100 µM
COc1ccc(-n2c(N)c(C#N)[nH]c2=O)cc1	> 10 µM	> 10 µM	> 10 µM	> 10 µM	> 10 µM	> 10 µM	3.98 µM	> 10 µM	7.91 µM	> 10 µM	> 10 µM	> 10 µM	> 10 µM					> 10 µM
O=C(/C=C/c1ccc(-c2ccccc2)cc1)NCc1ccc(C(=O)NCc2ccccc2)cc1	> 100 µM	> 100 µM	> 100 µM	> 100 µM	> 100 µM	> 100 µM	> 100 µM	> 100 µM	> 100 µM		> 100 µM	67.3 µM	> 100 µM	> 100 µM				> 100 µM
CN1C/C(=C\c2cccs2)C(O)/C(=C/c2cccs2)C1 (centres undefined)	> 100 µM	> 100 µM	> 100 µM	> 100 µM	> 100 µM	> 100 µM	> 100 µM	> 100 µM	> 100 µM		> 100 µM	> 100 µM	> 100 µM	> 100 µM				52.7 µM
COc1c(/C=C/C(C)(C)O)cc(C2CC(=O)c3c(O)cc(O)cc3O2)cc1CC=C(C)C (centres undefined)	32 µM	18 µM	17.8 µM	24.9 µM		15.1 µM	11.6 µM	15.9 µM	14.8 µM		1.6 µM	15.3 µM	20.5 µM	> 50 µM				> 50 µM
CN(C)c1ccc(C=NCC2CCCN3CCCCC23)cc1 (centres undefined)	> 100 µM	> 100 µM	> 100 µM	> 100 µM	> 100 µM	> 100 µM	> 100 µM	> 100 µM	> 100 µM		> 100 µM	> 100 µM	> 100 µM	> 100 µM				
COc1ccc2nc(-c3ccccc3)cc(OCC(=O)O)c2c1	> 100 µM	> 100 µM	> 100 µM	> 100 µM	> 100 µM	> 100 µM	> 100 µM	> 100 µM	> 100 µM	> 100 µM	51.3 µM		> 100 µM	> 100 µM				> 100 µM
